In patent US10100058B2, “Fused heterocyclic compounds as CaM kinase inhibitors” (Gilead Sciences, Inc., priority 2016, dated 2018):

biological target: recombinant CaMKIIδ (Homo sapiens (Human), UniProt Q13557); test: CaMKIIδ biochemical assay (HTRF); conditions: 10 pM CaMKIIδ, 110 nM calmodulin, 12 μM ATP, 1 hour; read-out: CAMKIID-HTRF-384V2 (IC50 - nM)
Protocol: CaMKIIδ Biochemical Assay
The biochemical activity of recombinant CaMKIIδ was measured by monitoring the phosphorylation of a target peptide using Homogenous Time Resolved Fluorescence (HTRF) technology from CisBio Bioassays.

Compound | IC50 [nM]
O=C(NCC1CCCCCN1)c1ccnc(-c2cnn3ccc(-c4cccs4)nc23)c1 (stereo not shown) [Example 16, N-(azepan-2-ylmethyl)-2-(5-(thiophen-2-yl)pyrazolo[1,5-a]pyrimidin-3-yl)isonicotinamide] | 60
O=C(c1ccnc(-c2cnn3ccc(-c4ccccc4)nc23)c1)N1CCCC12CCCNC2 (stereo not shown) [Example 97, (2-(5-phenylpyrazolo[1,5-a]pyrimidin-3-yl)pyridin-4-yl)(1,7-diazaspiro[4.5]decan-1-yl)methanone] | 216
COC1CN(c2cc(C(=O)NCC34CCCN3CCC4)cc(-c3cnn4ccc(-c5ccccc5)nc34)n2)C1 [Example 161, N-((hexahydro-1H-pyrrolizin-7a-yl)methyl)-2-(3-methoxyazetidin-1-yl)-6-(5-phenylpyrazolo[1,5-a]pyrimidin-3-yl)isonicotinamide] | 105
CCN[C@@H](C)CNC(=O)c1cc(-c2cnn3ccc(-c4cccs4)nc23)nc(N2CC(C)(O)C2)c1 [Example 245, (S)—N-(2-(ethylamino)propyl)-2-(3-hydroxy-3-methylazetidin-1-yl)-6-(5-(thiophen-2-yl)pyrazolo[1,5-a]pyrimidin-3-yl)isonicotinamide] | 9.25
CCN(CC)[C@@H](C)CNC(=O)c1cc(-c2cnn3ccc(-c4cccs4)nc23)nc(N2CC(C#N)C2)c1 [Example 142, (S)-2-(3-cyanoazetidin-1-yl)-N-(2-(diethylamino)propyl)-6-(5-(thiophen-2-yl)pyrazolo[1,5-a]pyrimidin-3-yl)isonicotinamide] | 0.1
O=C(c1ccnc(-c2cnn3ccc(-c4ccccc4)nc23)c1)N1CCCCC12CCNC2 (stereo not shown) [Example 89, (2-(5-phenylpyrazolo[1,5-a]pyrimidin-3-yl)pyridin-4-yl)(2,6-diazaspiro[4.5]decan-6-yl)methanone] | 13.6
CCN(CC)[C@@H](C)CNC(=O)c1cc(-c2cnn3ccc(-c4ccccc4)nc23)nc(N2CC(OC)C2)c1 [Example 160, (S)—N-(2-(diethylamino)propyl)-2-(3-methoxyazetidin-1-yl)-6-(5-phenylpyrazolo[1,5-a]pyrimidin-3-yl)isonicotinamide] | 1.15
CCN(CC)CCNC(=O)c1cc(-c2cnn3ccc(-c4cccs4)nc23)nc(N2CC(OC)C2)c1 [Example 254, N-(2-(diethylamino)ethyl)-2-(3-methoxyazetidin-1-yl)-6-(5-(thiophen-2-yl)pyrazolo[1,5-a]pyrimidin-3-yl)isonicotinamide] | 0.86
CCN(CC)[C@@H](C)CNC(=O)c1cc(-c2c[nH]nc2C(F)(F)F)nc(-c2cnn3ccc(-c4cccs4)nc23)c1 [Example 334, (S)—N-(2-(diethylamino)propyl)-2-(5-(thiophen-2-yl)pyrazolo[1,5-a]pyrimidin-3-yl)-6-(3-(trifluoromethyl)-1H-pyrazol-4-yl)isonicotinamide] | 0.19
CCN[C@@H](C)CNC(=O)c1cc(-c2cnn3ccc(-c4ccccc4)nc23)nc(C2CC2)c1 [Example 123, (S)-2-cyclopropyl-N-(2-(ethylamino)propyl)-6-(5-phenylpyrazolo[1,5-a]pyrimidin-3-yl)isonicotinamide] | 94.7
CCCC(CNC(=O)c1ccnc(-c2cnn3ccc(-c4ccccc4)nc23)c1)N(CC)CC (stereo not shown) [Example 60, N-(2-(diethylamino)pentyl)-2-(5-phenylpyrazolo[1,5-a]pyrimidin-3-yl)isonicotinamide] | 2.35
CCN[C@@H](CC)CNC(=O)c1ccnc(-c2cnn3ccc(-c4cccs4)nc23)c1 [Example 30, (S)—N-(2-(ethylamino)butyl)-2-(5-(thiophen-2-yl)pyrazolo[1,5-a]pyrimidin-3-yl)isonicotinamide] | 3.67
O=C(NC[C@H]1CCN1)c1ccnc(-c2cnn3ccc(-c4cccs4)nc23)c1 [Example 8, (R)—N-(azetidin-2-ylmethyl)-2-(5-(thiophen-2-yl)pyrazolo[1,5-a]pyrimidin-3-yl)isonicotinamide] | 10
CCN(CC)[C@@H](C)CNC(=O)c1cc(-c2cnn3ccc(-c4cccs4)nc23)nc(N2CC(NS(C)(=O)=O)C2)c1 [Example 197, (S)—N-(2-(diethylamino)propyl)-2-(3-(methylsulfonamido)azetidin-1-yl)-6-(5-(thiophen-2-yl)pyrazolo[1,5-a]pyrimidin-3-yl)isonicotinamide] | 0.09
CC(C)C(CNC(=O)c1ccnc(-c2cnn3ccc(-c4ccccc4)nc23)c1)NCC1CC1 (stereo not shown) [Example 52, N-(2-((cyclopropylmethyl)amino)-3-methylbutyl)-2-(5-phenylpyrazolo[1,5-a]pyrimidin-3-yl)isonicotinamide] | 4.98
CCN(CC)[C@@H](C)CNC(=O)c1cc(-c2cnn3ccc(-c4cccs4)nc23)nc(C(C)C)c1 [Example 104, (S)—N-(2-(diethylamino)propyl)-2-isopropyl-6-(5-(thiophen-2-yl)pyrazolo[1,5-a]pyrimidin-3-yl)isonicotinamide] | 3.96
N[C@H]1CC[C@@H]2CCCN(C(=O)c3ccnc(-c4cnn5ccc(-c6ccccc6)nc45)c3)[C@@H]21 [Example 99, ((4aS,7S,7aS)-7-aminooctahydro-1H-cyclopenta[b]pyridin-1-yl)(2-(5-phenylpyrazolo[1,5-a]pyrimidin-3-yl)pyridin-4-yl)methanone] | 6.98
CC[C@@]1(CNC(=O)c2ccnc(-c3cnn4ccc(-c5ccccc5)nc34)c2)CCCN1 [Example 75, (S)—N-((2-ethylpyrrolidin-2-yl)methyl)-2-(5-phenylpyrazolo[1,5-a]pyrimidin-3-yl)isonicotinamide] | 39.3
CC(C)C(N)CNC(=O)c1ccnc(-c2cnn3ccc(-c4ccccc4)nc23)c1 (stereo not shown) [Example 47, N-(2-amino-3-methylbutyl)-2-(5-phenylpyrazolo[1,5-a]pyrimidin-3-yl)isonicotinamide] | 35.3
CCCC(N)CNC(=O)c1ccnc(-c2cnn3ccc(-c4ccccc4)nc23)c1 (stereo not shown) [Example 48, N-(2-aminopentyl)-2-(5-phenylpyrazolo[1,5-a]pyrimidin-3-yl)isonicotinamide] | 25.7
CCOC(=O)Nc1cc(C(=O)NC[C@H](C)N(CC)CC)cc(-c2cnn3ccc(-c4cccs4)nc23)n1 [Example 186, (S)-ethyl (4-((2-(diethylamino)propyl)carbamoyl)-6-(5-(thiophen-2-yl)pyrazolo[1,5-a]pyrimidin-3-yl)pyridin-2-yl)carbamate] | 0.23
CCN(CC)[C@@H](C)CNC(=O)c1cc(Nc2cn[nH]c2)nc(-c2cnn3ccc(-c4cccs4)nc23)c1 [Example 231, (S)-2-((1H-pyrazol-4-yl)amino)-N-(2-(diethylamino)propyl)-6-(5-(thiophen-2-yl)pyrazolo[1,5-a]pyrimidin-3-yl)isonicotinamide] | 0.06

Now from value to molecule:

IC50 [nM] | Compound
0.17 | CCN(CC)[C@@H](C)CNC(=O)c1cc(-c2cnn3ccc(-c4cccs4)nc23)nc(N2CC[C@H]2C(=O)N(C)C)c1 [Example 279, N—((S)-2-(diethylamino)propyl)-2-((S)-2-(dimethylcarbamoyl)azetidin-1-yl)-6-(5-(thiophen-2-yl)pyrazolo[1,5-a]pyrimidin-3-yl)isonicotinamide]
0.17 | CCN(CC)[C@@H](C)CNC(=O)c1cc(-c2cnn3ccc(-c4cccs4)nc23)nc(N2CC[C@H](OC)C2)c1 [Example 209, N—((S)-2-(diethylamino)propyl)-2-((S)-3-methoxypyrrolidin-1-yl)-6-(5-(thiophen-2-yl)pyrazolo[1,5-a]pyrimidin-3-yl)isonicotinamide]
0.46 | CCN(CC)[C@@H](C)CNC(=O)c1cc(-c2cnn3ccc(-c4cccs4)nc23)nc(N2CC[C@@H]2COC)c1 [Example 266, N—((S)-2-(diethylamino)propyl)-2-((R)-2-(methoxymethyl)azetidin-1-yl)-6-(5-(thiophen-2-yl)pyrazolo[1,5-a]pyrimidin-3-yl)isonicotinamide]
1.43 | CCN(CC)[C@@H](C)CNC(=O)c1cc(-c2cnn3ccc(-c4cccs4)nc23)nc(N2CCC[C@@H]2COC)c1 [Example 273, N—((S)-2-(diethylamino)propyl)-2-((R)-2-(methoxymethyl)pyrrolidin-1-yl)-6-(5-(thiophen-2-yl)pyrazolo[1,5-a]pyrimidin-3-yl)isonicotinamide]
0.51 | CCN(CC)[C@@H](C)CNC(=O)c1cc(-c2cnn3ccc(-c4cccs4)nc23)nc(N2CC[C@H]2C(=O)NC2CC2)c1 [Example 277, 2-((S)-2-(cyclopropylcarbamoyl)azetidin-1-yl)-N—((S)-2-(diethylamino)propyl)-6-(5-(thiophen-2-yl)pyrazolo[1,5-a]pyrimidin-3-yl)isonicotinamide]
2.16 | CCN(CC)[C@@H](C)CNC(=O)c1cc(-c2cnn3ccc(-c4ccccc4)nc23)nc(N2CC[C@H]2C(=O)NC)c1 [Example 309, N—((S)-2-(diethylamino)propyl)-2-((S)-2-(methylcarbamoyl)azetidin-1-yl)-6-(5-phenylpyrazolo[1,5-a]pyrimidin-3-yl)isonicotinamide]
0.32 | CCN(CC)[C@@H](C)CNC(=O)c1cc(-c2cnn3ccc(-c4cccs4)nc23)nc(N2CC(S(=O)(=O)NC3CC3)C2)c1 [Example 151, (S)-2-(3-(N-cyclopropylsulfamoyl)azetidin-1-yl)-N-(2-(diethylamino)propyl)-6-(5-(thiophen-2-yl)pyrazolo[1,5-a]pyrimidin-3-yl)isonicotinamide]
0.25 | CCN(CC)[C@@H](C)CNC(=O)c1cc(-c2cnn3ccc(-c4cccs4)nc23)nc(N2CC[C@H](C(=O)NC)C2)c1 [Example 310, N—((S)-2-(diethylamino)propyl)-2-((S)-3-(methylcarbamoyl)pyrrolidin-1-yl)-6-(5-(thiophen-2-yl)pyrazolo[1,5-a]pyrimidin-3-yl)isonicotinamide]
0.22 | CCN(CC)[C@@H](C)CNC(=O)c1cc(-c2cnn3ccc(-c4cccs4)nc23)nc(N2CC(NC(=O)C3CC3)C2)c1 [Example 196, (S)-2-(3-(cyclopropanecarboxamido)azetidin-1-yl)-N-(2-(diethylamino)propyl)-6-(5-(thiophen-2-yl)pyrazolo[1,5-a]pyrimidin-3-yl)isonicotinamide]
